Measurements reported in publication PMC12323621, “Exploring the antimicrobial activity of pantothenamides against uropathogenic Escherichia coli” (Microbiology Spectrum, 2025).
Where two headings read alike, the source gives them in different places.

Tested on: UPEC strain CFT073
Assay: Antimicrobial susceptibility assay, UPEC grown in pooled human urine
Type: cell-based, Escherichia coli
Excerpt: Unless otherwise noted, all reagents were obtained from commercial sources. BAP, 1, and N5-Pan analogs were synthesized according to previously reported procedures ([31], [53]). Urine was self-collected from adult males and females (not menstruating) between 24 and 57 years old (recruitment was open to donors 18–65 years old), who had not used anti-infectives or cranberry products for at least 7 days prior to collection. The collection protocol was approved by the Johns Hopkins University Institutional Review Boards under IRB study NA_00085130. Informed, written consent was obtained from all participants prior to collection. Urine was collected from at least 7 participants over 14 days, stored at 4°C upon collection, and then pooled, filter-sterilized, and frozen at −20°C. Urine Batch A included five male and three female donors with an average age of 33 years (range: 24–57). Urine Batch B included four male and five female donors with an average age of 26 years (range: 24–43). Samples from two donors (donations made at least 30 days apart) were included in both Batch A and Batch B. Urine Batch C included four male and three female donors with an average age of 27 years (range: 24–36). Urine Batch D included four male and three female donors with an average age of 27 years (range: 25–35). Solid urine agar plates were prepared by supplementing cooled 1.5% (wt/vol) agar with filter-sterilized urine in a 4:1 ratio. Liquid MOPS-glycerol was prepared by adding 10 × 3-(N-morpholino)propanesulfonic acid (MOPS) Buffer (Teknova) to water to a final 1× concentration, 1.32 mM K2HPO4, and 0.4% (vol/vol) glycerol and then filter-sterilizing. Unless otherwise noted, all media were supplemented with freshly prepared 20 µM FeSO4. OD600 analyses were performed on Mettler-Toledo UV5Bio UV/Visible spectrophotometer (Columbus, Ohio, USA). For antimicrobial studies, uropathogenic E. coli strain CFT073 (ATCC: BAA-2503) was provided by Kevin Schwartz from the lab of Rodney Welch. All manipulation of UPEC was conducted in a certified biosafety level 2 (BSL-2) laboratory while using BSL-2-associated safety procedures. Antimicrobial data were collected on a Biotek Epoch 2 microplate reader or a Biotek Synergy Neo 2 microplate reader. For metabolic stability studies, losartan potassium (PHR1602), used as an internal standard, was bought from Millipore Sigma (Burlington, MA). Methanol (A456-4) and acetonitrile (A955-4) were purchased from Fisher Chemical (Pittsburgh, PA). Water (9831-03) was purchased from JT Baker (Philipsburg, NJ). Dimethyl sulfoxide (DMSO)(154938-500mL) was purchased from Sigma Aldrich (St. Louis, MO). Mouse plasma (WT) was purchased from Innovative Research (Novi, MI). Mouse liver microsomes (M1000) were purchased from XenoTech LLC (Kansas City, KS).
All antimicrobial susceptibility assays were conducted as previously described using an aseptic technique with some modification ([7]). Briefly, 3–5 isolated colonies of CFT073 on LB agar or pooled urine agar were inoculated into 3 mL of liquid MOPS-glycerol medium or pooled urine, respectively, and grown overnight with shaking at 37°C. Saturated cultures were diluted 1:50 in fresh medium and grown to an OD600 of 0.4. These exponential phase cultures were then diluted 1:1,000 into fresh medium to yield the experimental inoculum, which was mixed 1:1 with medium containing 1 or N5-Pan analog at twice the desired final concentration in 96-well plates. The final concentration of bacteria in each well was approximately 10^5 CFU/mL in a final volume of 200 µL. The concentration ranges of compounds evaluated in MOPS-glycerol were: 1 (0–312.5 μM), 2 (0–100 μM), 3 (0–500 μM), 4–5 (0–2,000 μM), 6–7 (0–100 μM), and 8–12 (0-2,000 μM). Analogs 1, 6, and 7 were evaluated over a range of 0–4,000 μM in four batches of pooled human urine. The OD600 was monitored for 24 h (MOPS-glycerol) or 16 h (pooled urine) at 37°C with periodic shaking. […]

[1] = Escherichia coli, UPEC CFT073, all urine batches A-D, read-out: MIC across four batches of pooled urine
[2] = Escherichia coli, UPEC CFT073, urine batch A, read-out: MIC in pooled human urine, urine batch A
[3] = Escherichia coli, UPEC CFT073, urine batch B, read-out: MIC in pooled human urine, urine batch B
[4] = Escherichia coli, UPEC CFT073, urine batch C, read-out: MIC in pooled human urine, urine batch C
[5] = Escherichia coli, UPEC CFT073, urine batch D, read-out: MIC in pooled human urine, urine batch D
[6] = UPEC CFT073, urine batch A, read-out: MIC in pooled human urine, urine batch A
[7] = UPEC CFT073, urine batch B, read-out: MIC in pooled human urine, urine batch B

Row | Compound | MIC [1] [µM] | MIC [2] [µM] | MIC [3] [µM] | MIC [4] [µM] | MIC [5] [µM] | MIC [6] [µM] | MIC [7] [µM] | fold higher MIC in urine than in MOPS-glycerol (urine MICs vs MIC in MOPS-glycerol) [fold]
1 | CCCCCNC(=O)CCNC(=O)[C@H](O)C(C)(C)CO [compound 1, N-pentylpantothenamide, reference compound] | 250 to 1000 | 1000 | 250 | 1000 | 1000 | 1000 | 250 | –
2 | CCCCCNC(=O)CNC(=O)[C@H](O)C(C)(C)CO [compound 6, N5-α-pantothenamide] | 250 to 1000 | 1000 | 250 | 500 | 500 | 1000 | 250 | > 40
